Test results reported in publication PMC12400753 (Respiratory Research, 2025).

Columns and labels:
[1] = test system: primary human lung fibroblasts; assay: LPA-induced chemotaxis assay; type: cell-based; details: 1 µM LPA chemoattractant; 6 h preincubation; read-out: IC50 inhibition of fibroblast chemotaxis
Experimental: Chemotaxis assay: Primary human lung fibroblasts were obtained from ATCC (Cat # PCS-201-020) and cultured in fibroblast media as per ATCC directions. Fibroblasts were serum starved overnight in basal fibroblast media. Cells were then lifted using CellStripper, centrifuged at 500 x g for 10 min, then resuspended in basal media. […] The receiving chamber contained 1 µM LPA. Chemotaxis was quantified as per Cell Biolabs, Inc instructions on a Flexstation 3 (Molecular Devices).

[2] = test system: primary human lung fibroblasts; assay: LPA-induced COL1A1 expression (immunocytochemistry); type: cell-based; details: 1 µM LPA 8 h; compound overnight; read-out: IC50 inhibition of COL1A1 expression
Experimental: COL1A1 assay: Primary human lung fibroblasts were plated in a 96-well plate and allowed to adhere. […] The next day, cells were treated with 1 µM LPA and incubated for 8 h. After incubation in LPA, cells were immunostained for COL1A1. Cells were fixed in formalin for 10 min, washed 3 x with PBS, incubated in collagen 1A1 antibody (1:250 in blocking buffer, 0.1% Triton X-100 in PBS, 2 h), and washed 3 x with PBS. Secondary antibody solution (1:500) and Hoechst (1:2000) were added for 1 h, washed 3 x in PBS then imaged on a Nikon A1R confocal microscope at 10x magnification except human lung fibroblasts which were imaged at 4x. Collagen area was quantified with ImageJ and normalized to Hoechst per image.

[3] = test system: primary human lung fibroblasts; assay: TGFβ1- or LPA-induced myofibroblast transformation (αSMA, COL1A1); type: cell-based; details: PIPE-791 1 µM
Experimental: TGFβ1 was used at 5 ng/mL. In addition to COL1A1 immunostaining, cells were co-immunostained with aSMA followed by a goat anti-rabbit Alexa647 secondary antibody.

[4] = test system: human precision cut lung slices from donors with pulmonary fibrosis; assay: Fibrotic marker mRNA (qPCR) in cryopreserved PCLS from donors with pulmonary fibrosis; type: cell-based; details: PIPE-791, 6 days, 6 donors
Text: Slices were snap frozen and processed for transcript analysis by quantitative PCR. […] Concurrently, we evaluated two well-established, clinical stage antifibrotic mechanisms in this setting: an αvβ1/6 inhibitor (bexotegrast, PLN-74809) and a PDE4B inhibitor (nerandomilast, BI 1015550).
(§1) Precision cut lung slices were obtained from Anabios (San Diego, CA) and collected in accordance with their ethics policy (https://anabios.com/ethics-statement/). Donor demographics are available in Additional File 1. Slices were thawed as per vendor instructions. Briefly, PCLS were thawed at 37 °C then transferred to media consisting of DMEM/F12, Antibiotic-Antimytotic, and Penicillin-Streptomycin. PCLS were gently rinsed then transferred to a larger dish. A small tissue sample was excised with a scalpel for immunohistochemistry and qPCR characterization. […] Final concentration of DMSO was 0.1%. Media and compound were replaced every two days for a total of 6 days. At the end of the experiment, slices were collected and snap frozen. Quantitative PCR: RNA was extracted using RNEasy columns. RNA was reverse transcribed using qScript XLT per manufacturer’s instructions. Genes of interest were assessed by qPCR using Perfecta SYBR Green on a StepOne Plus Thermocycler (ABI). Parameters were as follows: 95 °C 30 s, then 45 cycles of 95 °C for 5 s and 60 °C for 30 s.

[5] = test system: normal, non-fibrotic human PCLS; assay: Fibrotic marker mRNA (qPCR) in normal PCLS; type: cell-based; details: n=5 donors
Experimental: as §1

[6] = Rat plasma pharmacokinetics after oral dose; type: in vivo; details: 10 mg/kg oral, n=2
Experimental: This distinct, long-lived pharmacokinetic profile would support a dosing frequency less than that of other LPAR1 antagonists described in the literature.
Plasma and lung homogenate samples were thawed and further diluted as necessary with naïve mouse plasma or naïve lung homogenate matrix. […] Plasma drug concentrations were calculated by comparison of peak area ratios of analyte/IS to the prepared calibration standards using Sciex Analyst software.

[7] = Plasma protein binding (fraction unbound); type: in vitro ADME; details: rat plasma
[8] = test system: primary human alveolar macrophages; assay: LPS-induced IL-1β release; type: cell-based
Experimental: Human macrophages were cultured in Human Alveolar Macrophage Media per manufacturer’s instructions. […] Cells were then co-stimulated with 500 ng/mL LPS for 4 h. Plates were spun down and supernatant collected for analysis using a human IL-1β ELISA kit per manufacturer’s directions.

[9] = test system: mouse alveolar macrophages; assay: IL-1β release of alveolar macrophages from orally dosed mice, ex vivo LPS; type: in vivo; details: 3 mg/kg oral, 24 h before isolation; with and without ex vivo LPS
Experimental: 1.5 mL DPBS was injected into lungs and BAL fluid aspirated. Cells were plated in at 40,000 cells/well and stimulated first with 500 ng/mL LPS for 4 h then and 1 µM LPA for an additional hour at 37 °C. Plates were spun down and supernatant analyzed for IL-1β by ELISA.

[10] = test system: human precision cut lung slices from donors with pulmonary fibrosis; assay: Fibrotic marker mRNA (qPCR) in cryopreserved PCLS from donors with pulmonary fibrosis; type: cell-based; details: PIPE-791, 6 days, 6 donors; remark: listed apart in the source
[11] = design: method as in NCT05983939; details: Phase I; ref NCT05983939; cited from earlier work

COc1ccc(NC(=O)N(c2ccccc2C(C)C)C2CCC(C(=O)O)CC2)c(OC(F)F)n1 (stereo not shown) [PIPE-791]
IC50 [1]: 1.5 nM
IC50 [2]: 1.1 nM
COL1A1 induction ([3]; LPA stimulation): significantly inhibited
αSMA expression ([3]; LPA stimulation): significantly inhibited
COL1A1 induction ([3]; TGFβ1 stimulation): significantly inhibited
αSMA expression ([3]; TGFβ1 stimulation): significantly inhibited
COL1A1 mRNA expression vs vehicle [4]: significantly less expression
COL3A1 mRNA expression vs vehicle [4]: significantly less expression
LPAR1 mRNA levels vs vehicle [4]: not significantly affected
SERPINE1 mRNA expression vs vehicle [4]: significantly less expression
TIMP1 mRNA expression vs vehicle [4]: significantly less expression
expression of fibrotic marker transcripts (COL1A1, COL3A1, SERPINE1, TIMP1, LPAR1) [5]: did not alter the expression of any of the fibrotic marker transcripts tested
plasma unbound concentration at 24 h post-dose versus calcium mobilization IC50 [6]: exceeded the in vitro calcium mobilization IC50
plasma fraction unbound [7]: 0.057
LPS-induced IL-1β in culture media ([8]; 500 ng/mL LPS 4 h, LPS alone 4.3-fold increase): inhibited to baseline levels
IL-1β in culture media, compound alone ([8]; no LPS): No increase was observed
IL-1β levels of isolated alveolar macrophages [9]: comparable to baseline
slice health as measured by LDH in the media [10]: no significant effect on slice health
safety and tolerability [11]: safe and well-tolerated
